Experimental data published in ChEMBL document CHEMBL5696442, “Discovery of type II inhibitors of TGFβ-activated kinase 1 (TAK1) and mitogen-activated protein kinase kinase kinase kinase 2 (MAP4K2)” (J Med Chem, 2015).

Legend:
[1] = target: T1, Mitogen-activated protein kinase kinase kinase 2 (Homo sapiens) (UniProt Q9Y2U5); assay: Inhibition of MAP3K2 Lys1 labeling site harbouring ELAVKQVQFDPDSPETSKEVNALECEIQLLK in human A-375 cells at 0.5 uM by KiNativ Profiling analysis relative to control; assay type: cell-based
T1 sequence (whole entry): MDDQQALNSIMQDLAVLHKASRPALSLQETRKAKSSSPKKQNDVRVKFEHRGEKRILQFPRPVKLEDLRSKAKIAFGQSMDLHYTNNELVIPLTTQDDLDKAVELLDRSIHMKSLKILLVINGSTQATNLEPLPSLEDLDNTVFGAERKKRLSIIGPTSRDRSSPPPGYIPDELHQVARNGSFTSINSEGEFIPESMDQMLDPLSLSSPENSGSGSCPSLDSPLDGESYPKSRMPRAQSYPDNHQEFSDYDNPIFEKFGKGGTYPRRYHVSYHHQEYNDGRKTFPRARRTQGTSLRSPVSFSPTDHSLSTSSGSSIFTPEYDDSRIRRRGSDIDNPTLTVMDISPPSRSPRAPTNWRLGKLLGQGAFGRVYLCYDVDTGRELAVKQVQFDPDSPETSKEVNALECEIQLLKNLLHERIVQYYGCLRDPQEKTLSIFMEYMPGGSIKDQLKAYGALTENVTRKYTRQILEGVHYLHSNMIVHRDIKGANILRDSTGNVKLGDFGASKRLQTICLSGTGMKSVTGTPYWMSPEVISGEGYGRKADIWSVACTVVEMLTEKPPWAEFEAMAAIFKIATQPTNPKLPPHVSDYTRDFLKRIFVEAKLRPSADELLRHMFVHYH

[2] = target: T2, Ephrin type-B receptor 2 (Homo sapiens) (UniProt P29323); assay: Inhibition of EPHB2 (unknown origin) at 1 uM by Ambit Kinomescan binding assay relative to control
T2 sequence (whole entry): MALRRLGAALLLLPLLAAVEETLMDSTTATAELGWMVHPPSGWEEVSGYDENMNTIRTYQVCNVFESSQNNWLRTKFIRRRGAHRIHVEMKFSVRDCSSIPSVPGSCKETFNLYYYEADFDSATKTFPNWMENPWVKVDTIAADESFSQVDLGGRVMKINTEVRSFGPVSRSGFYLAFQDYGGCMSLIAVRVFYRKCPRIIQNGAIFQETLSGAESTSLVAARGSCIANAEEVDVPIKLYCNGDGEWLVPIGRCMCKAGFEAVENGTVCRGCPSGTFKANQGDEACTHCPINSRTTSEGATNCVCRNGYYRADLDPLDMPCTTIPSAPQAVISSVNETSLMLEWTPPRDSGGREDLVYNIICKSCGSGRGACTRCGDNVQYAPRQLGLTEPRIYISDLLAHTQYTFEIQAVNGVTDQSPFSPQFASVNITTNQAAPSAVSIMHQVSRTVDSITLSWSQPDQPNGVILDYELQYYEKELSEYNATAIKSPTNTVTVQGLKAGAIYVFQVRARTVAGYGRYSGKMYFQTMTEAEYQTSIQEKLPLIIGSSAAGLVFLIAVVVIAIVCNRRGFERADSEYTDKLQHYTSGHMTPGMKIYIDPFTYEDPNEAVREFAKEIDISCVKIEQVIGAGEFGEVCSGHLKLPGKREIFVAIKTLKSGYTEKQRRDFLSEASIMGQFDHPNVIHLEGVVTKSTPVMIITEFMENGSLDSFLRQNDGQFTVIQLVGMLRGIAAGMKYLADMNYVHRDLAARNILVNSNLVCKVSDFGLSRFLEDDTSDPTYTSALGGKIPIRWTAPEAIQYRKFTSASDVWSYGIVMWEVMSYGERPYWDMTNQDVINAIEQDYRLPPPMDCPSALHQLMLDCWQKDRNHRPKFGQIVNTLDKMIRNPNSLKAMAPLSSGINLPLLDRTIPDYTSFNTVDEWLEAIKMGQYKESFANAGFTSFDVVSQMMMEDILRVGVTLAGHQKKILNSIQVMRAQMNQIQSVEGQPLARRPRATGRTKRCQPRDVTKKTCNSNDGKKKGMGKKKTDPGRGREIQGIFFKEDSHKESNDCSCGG

[3] = target: T3, Serine/threonine-protein kinase ULK1 (Homo sapiens) (UniProt O75385); assay: Inhibition of ULK1 Lys2 labeling site in human A-375 cells at 5 uM by KiNativ Profiling analysis relative to control; assay type: cell-based
T3 sequence (whole entry): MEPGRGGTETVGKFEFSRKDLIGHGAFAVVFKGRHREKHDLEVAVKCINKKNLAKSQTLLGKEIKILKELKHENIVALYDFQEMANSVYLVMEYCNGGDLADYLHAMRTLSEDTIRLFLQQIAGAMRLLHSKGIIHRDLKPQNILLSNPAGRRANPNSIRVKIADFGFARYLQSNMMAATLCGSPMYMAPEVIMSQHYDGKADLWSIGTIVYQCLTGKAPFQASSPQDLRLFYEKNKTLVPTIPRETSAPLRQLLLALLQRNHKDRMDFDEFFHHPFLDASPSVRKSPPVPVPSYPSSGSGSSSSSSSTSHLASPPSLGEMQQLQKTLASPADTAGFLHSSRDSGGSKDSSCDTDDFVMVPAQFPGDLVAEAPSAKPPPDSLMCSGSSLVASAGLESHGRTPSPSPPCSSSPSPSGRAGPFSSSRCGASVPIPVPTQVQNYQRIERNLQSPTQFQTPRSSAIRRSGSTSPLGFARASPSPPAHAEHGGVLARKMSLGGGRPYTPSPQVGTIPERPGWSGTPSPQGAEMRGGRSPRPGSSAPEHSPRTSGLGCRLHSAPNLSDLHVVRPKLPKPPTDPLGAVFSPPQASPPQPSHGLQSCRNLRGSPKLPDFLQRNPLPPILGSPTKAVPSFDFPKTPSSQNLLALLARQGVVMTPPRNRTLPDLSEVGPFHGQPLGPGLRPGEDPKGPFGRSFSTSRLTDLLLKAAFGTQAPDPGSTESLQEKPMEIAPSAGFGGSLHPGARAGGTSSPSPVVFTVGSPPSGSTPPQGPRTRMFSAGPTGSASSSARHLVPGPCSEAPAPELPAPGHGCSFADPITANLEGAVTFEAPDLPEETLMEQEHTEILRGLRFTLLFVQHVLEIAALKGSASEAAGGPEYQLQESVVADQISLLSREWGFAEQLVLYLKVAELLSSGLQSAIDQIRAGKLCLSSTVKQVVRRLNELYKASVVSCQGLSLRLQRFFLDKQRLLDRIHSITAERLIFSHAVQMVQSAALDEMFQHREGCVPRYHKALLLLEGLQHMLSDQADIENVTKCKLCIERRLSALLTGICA

[4] = tested on: Mast/stem cell growth factor receptor Kit (Homo sapiens), P10721 [V559D,T670I]; assay: Inhibition of KIT V559D/T670I mutant (unknown origin) at 1 uM by Ambit Kinomescan binding assay relative to control; values are per cent of control
Sequence of Mast/stem cell growth factor receptor Kit (Homo sapiens), P10721 [V559D,T670I] (P10721 whole entry V559D/T670I): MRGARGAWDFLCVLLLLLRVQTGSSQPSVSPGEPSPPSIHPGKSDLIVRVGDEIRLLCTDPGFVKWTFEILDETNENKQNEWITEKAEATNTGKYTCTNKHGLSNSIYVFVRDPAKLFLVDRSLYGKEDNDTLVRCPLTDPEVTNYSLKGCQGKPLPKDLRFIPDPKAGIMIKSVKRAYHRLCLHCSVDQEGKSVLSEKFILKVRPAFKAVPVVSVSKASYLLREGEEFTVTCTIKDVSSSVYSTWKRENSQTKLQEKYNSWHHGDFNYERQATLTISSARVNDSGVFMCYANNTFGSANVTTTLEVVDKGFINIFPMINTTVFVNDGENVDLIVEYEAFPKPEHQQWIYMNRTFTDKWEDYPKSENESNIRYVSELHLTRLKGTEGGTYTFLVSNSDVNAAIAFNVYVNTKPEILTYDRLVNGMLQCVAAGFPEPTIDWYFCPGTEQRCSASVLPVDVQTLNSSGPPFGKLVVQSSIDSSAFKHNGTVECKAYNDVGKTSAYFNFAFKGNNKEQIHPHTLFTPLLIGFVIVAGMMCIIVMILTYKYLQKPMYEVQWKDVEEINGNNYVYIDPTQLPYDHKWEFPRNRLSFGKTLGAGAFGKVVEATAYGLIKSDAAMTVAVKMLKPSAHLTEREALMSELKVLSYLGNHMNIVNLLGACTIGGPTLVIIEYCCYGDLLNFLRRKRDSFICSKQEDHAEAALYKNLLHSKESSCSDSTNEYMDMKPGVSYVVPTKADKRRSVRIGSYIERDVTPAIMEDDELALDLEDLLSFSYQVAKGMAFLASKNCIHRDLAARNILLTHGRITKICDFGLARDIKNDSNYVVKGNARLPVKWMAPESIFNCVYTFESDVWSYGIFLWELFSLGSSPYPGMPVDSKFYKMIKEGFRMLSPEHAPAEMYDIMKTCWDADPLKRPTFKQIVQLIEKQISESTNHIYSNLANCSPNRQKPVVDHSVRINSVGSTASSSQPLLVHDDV

SMILES | inhibition [1] | inhibition [2] | inhibition [3] | residual activity [4]
CCN1CCN(Cc2ccc(NC(=O)c3ccc(C)c(Oc4ccnc5[nH]ccc45)c3)cc2C(F)(F)F)CC1 | 16.9% | – | – | –
CCN1CCN(Cc2ccc(NC(=O)c3ccc(C)c(/C=C/c4cnc5[nH]ccc5c4OC)c3)cc2C(F)(F)F)CC1 | – | 5.8% | -1.3% | 4.9%
